Earlier results, collected in patent US20250281435A1, “CHEWABLE GUMMY CONTAINING BETA-HYDROXY BETA-METHYLBUTYRIC ACID (HMB)” (Concept Matrix Solutions, priority 2024, published 2025).

Conditions: oral ingestion

- time of peak plasma concentration after ingestion: 1 to 2 h
SMILES: CC(C)(O)CC(=O)O [HMB, 3-hydroxy-3-methylbutanoic acid]
